Laboratory results reported in US11571460B2 (priority 2017, dated 2023).

What was measured:
[1] = system: bone marrow-derived macrophages; assay: Phagocytosis assay with latex bead-FITC; format: cell-based, mouse; conditions: vs control group
Description: Cells were smeared in a 96-assay well plate and treated as described above. The cells were pretreated for 30 minutes with or without cytochalasin D before treatment with latex bead-FITC (Sigma-Aldrich). After 2 hours of incubation, the cells were washed with PBS three times to remove foreign particles. Fluorescence of internalized beads was measured using emission of 527 nm after excitation of 485 nm in a fluorescent plate reader (Fluorskan Ascent FL) quenching with trypan blue.

splenocytes [2] = assay: Melittin binding study with rhodamine-bound melittin in splenocytes; format: cell-based, mice
Description: After 1 hour, cells were harvested and the non-binding peptides were washed twice.
Next, the cells were cultured with rhodamine-bound peptides and stained with CD11b-APC antibodies as described above.
Annexin-V was added to a sample before data collection to distinguish dead cells. […] tumor-associated macrophage was stained with CD86-PEcy7 (e-bioscience) or CD206-PercpCy5.5 (Biolegend). The cells were detected in FACS Calibur or FACS CantoII.

[3] = Body weight of tumor-bearing mice; format: in vivo
Description: The weights of mice were measured every 2 to 3 days until 0 to 18 days.

lung cancer cells = assay: Cell cycle analysis by PI staining and flow cytometry; format: cell-based; conditions: 0.1 to 2 μg/mL melittin
Description: The cells were collected, washed twice with PBS, fixed with 70% pre-cooled ethanol and stored at −20° C. overnight. The cells were washed and resuspended in PBS 500 μl containing 0.1% Triton X-100 and RNase 20 μg/ml. Next, 50 μg/ml of propidium iodide (PI) was added. Stained cells were cultured at 37° C. for 20 minutes and then detected by a FACS Calibur flow cytometer (Becton Dickinson, San Jose, Calif., USA). Data were analyzed by Flow Jo software (Treestar, Inc., San Carlos, Calif., USA).

tumor tissue = assay: Immunofluorescence confocal microscopy of VEGF and CD31 in tumor tissue; format: in vivo, mice
Description: The tumor of inoculated mice was fixed overnight with paraformaldehyde, dehydrated, and then placed in paraffin. Slices (5 μm thick) of the inserted tissue were cut in a rotary microtome and deparaffinized. The antigens of the slides were recovered by an autoclave in a trisodium citrate buffer (pH 6) for 1 minute, washed with PBS and then blocked for 1 hour with 1.5% BSA containing 0.2% Triton X-100. The slides were cultured overnight at 4° C. with anti-VEGF and anti-CD31 primary antibodies (1:200, Santa Cruz Biotechnology, Santa Cruz, Calif., USA).
All tissue slices were cultured at room temperature for 1 hour and then visualized with an alexa-488 or alexa-594 conjugated secondary antibody (1:500, Invitrogen). All the antibodies were diluted with a 0.5% BSA solution and cultured in a wet chamber. The slides were fixed with a DAPI solution and analyzed by laser scanning confocal microscopy (Bio-Rad, Richmond, Calif., USA). All images were captured with LSM and total integration density was measured with image J software.

[4] = system: bone marrow-derived macrophages (BMDM); assay: ELISA of cytokines in BMDM culture supernatant; format: cell-based, mouse
Description: (§1) Cells were harvested as previously described to generate mouse bone marrow-derived macrophages. The cells were cultured for 7 days in an RPMI-1640 complete culture medium containing 10 ng/ml of mouse recombinant M-CSF (R & D systems, Minneapolis, Minn., USA). After the cells were differentiated into M0 macrophages, the cells were smeared in a 6-well plate (1×10^6 cells/well) and cultured overnight under 100 ng/ml LPS or 20 ng/ml mouse recombinant IL-4 (R & D system) to induce differentiation of M1 or M2 phenotype macrophages.
The secretion of cytokine from the culture medium was analyzed using an ELISA kit according to a procedure recommended by a provider. Mouse IL-10 and
TNF-α were purchased from BD Biosciences, and TGF-β was purchased from R & D systems. Results were expressed as pg of normalized cytokine per mg of total protein.

splenocytes [5] = assay: Flow cytometry of immune cells in splenocytes of tumor-bearing mice; format: in vivo
Description: (§2) A tissue was dissociated by cutting the tumor into thin pieces and gently stirring in DNase I (1 U/ml; Roche, Indianapolis, trypsin-EDTA (Gibco)) under DMEM (Welgene) preheated at 37° C. for 1 hour. The tissue was mechanically dissociated in a 100 μm nylon mesh strainer, then single cells passed through a 40 μm nylon mesh strainer, and the spleen was mechanically dissociated with a 40 μm nylon mesh strainer. RBC was dissolved for 5 minutes in a 1× pharmlyse buffer.
(§3) The cells were stained with fluorescent tag antibodies. All data were detected by a FACS Calibur flow cytometer and analyzed with FlowJo software. CD45-FITC, CD3-FITC, CD4-PE, CD4-FITC, CD8-APC, CD11b-APC, CD11 c-PE, CD25 (CD12-FITC)-PE, CD25-APC, B220-FITC, CD19-PE, CD86-APC, and Foxp3-Alexa Fluor647 were purchased from BD bioscience and F4/80-PE and CD206-APC were purchased from Biolegend (San Diego, Calif., USA).
(§4) Lewis lung carcinoma cells were mixed with a Matrigel matrix (Coming, N.Y., USA) to generate a tumor model. Male C57BL/6 wild-type mice (6 to 8 weeks old) were inoculated subcutaneously in the right flank with 5×10^4 cells per mouse. […] Before 3 days of tumor injection, macrophage deficiency was performed by clodronate liposomes (first dose of 200 μl per mouse, maintenance dose of 100 μl intraperitoneally every 4 days). Clodronate liposome and control liposome were purchased from FormuMax (Sunnyvale, Calif., USA). A tumor size was monitored every 2 to 3 days by measuring two opposite diameters (volume=length×width×width/2). If the tumor size exceeded 5% of the body weight, the mice were sacrificed for a next experiment set. Thereafter, the tumor and the spleen were surgically removed.
Screening of the immune cells was performed by flow cytometry on CD4^+ T cells, CD8^+ T cells, B cells, dendritic cells, and macrophages from splenocytes of mice with cancer. The flow cytometry was performed in the same manner as Example 3-2.

[6] = system: bone marrow-derived macrophages (BMDM); assay: Western blot analysis of BMDM; format: cell-based, mouse
Description: as §1
Total proteins were extracted using a RIPA buffer from melittin or PBS treated-bone marrow-derived macrophages and quantified by Bio-Rad analysis. 20 μg of protein was isolated on an 8% SDS Tris-glycine gel and transferred to a nitro cellulose cell membrane (Invitrogen). The following antibodies and dilution factors were used: VEGF goat polyclonal antibody (sc-1836, 1:1000, Santa Cruz), actin goat polyclonal antibody (sc-1616, 1:1000, Santa Cruz), […] CD206 (MCA2235GA 1:200, AbD serotec), anti-goat IgG conjugated to HRP (SA007, 1:1000, GenDEPOT), and anti-rat IgG bound to HRP (405405, 1:1000, Biolegend). Protein bands were visualized using an ECL solution (GE healthcare) and measured with Image J software. The strength of the protein has been normalized above that of actin.

[7] = system: M1-type bone marrow-derived macrophages; assay: Intracellular ROS production by H2DCFDA staining; format: cell-based, mouse; conditions: melittin-treated vs control, 24 hours
Description: The cells were added with 5 μM C2′,7′-dichlorodihydrofluorescein diacetate (H2DCFDA; molecular probe) and cultured at 37° C. for 30 minutes. The H2DCFDA-containing medium was removed and the cells were washed twice with preheated PBS. After the cells were collected, ROS production levels were immediately analyzed using flow cytometry.

[8] = system: Lewis lung carcinoma cells; assay: Tumor growth and survival in mice injected subcutaneously with Lewis lung carcinoma cells; format: in vivo, C57BL/6 mice
Description: A cancer growth rate in the control group was fast, but the cancer growth in the melittin-treated group was late.
as §4

[9] = system: bone marrow-derived macrophages (BMDM); assay: Quantitative real-time PCR in bone marrow-derived macrophages; format: cell-based, mouse
Description: as §1
(§5) Quantitative real time PCR was performed according to previous reports. Data were expressed as […] for experimental genes, normalized to GAPDH, and expressed as a fold change compared to an LPS or IL-4 untreated control group. The following primers were used: Gapdh(for: […] (SEC) ID NO: 1); rev: […] (SEQ ID NO: 2)), Tnf-α(for: TTCTG […] (SEQ ID NO: 3); rev: GTAT […] (SEQ ID NO: 4), Mrc1/CD206(for: […] (SEQ ID NO: 5); rev: GGTT […] (SEQ ID NO: 6)), I1-10(for: […] (SEQ ID NO: 7); rev: […] (SEQ ID NO: 8)), Tgf-β(for: […] (SEQ ID NO: 9); rev: […] (SEQ ID NO: 10)), Vegf(for: GGAGA […] (SEQ ID NO: 11); rev: […](SEQ ID NO: 12)), F1t1/VEGFR1(for: […] (SEQ. ID NO: 13); rev: […] (SEQ ID NO: 14)).

[10] = system: tumor-associated macrophages (TAM); assay: Flow cytometry of tumor-associated macrophages in tumor tissue; format: in vivo, mice
Description: as §2, §3, §4

[11] = Blood cell profile test (hematological profiling); format: in vivo, mice
Description: The blood was collected from the retro-orbital plexus of mice under anesthesia. The blood was immediately mixed with EDTA and analyzed by a Hemavet 950 auto-sampler (Drew scientific, Waterbury, Conn., USA) according to manufacturer's instructions. The parameters of leukocytes, erythrocytes, and platelets were measured and expressed as a percentage.
The blood was collected via the retro-orbital plexus during anesthesia.

[12] = system: Lewis lung carcinoma cells; assay: Quantitative real-time PCR in Lewis lung carcinoma cells; format: cell-based; conditions: control vs melittin-treated
Description: as §5

[13] = melittin-treated tumor-bearing mice

SMILES: C=C1[C@@H](C)[C@H]2[C@H](Cc3ccccc3)NC(=O)[C@]23[C@H](OC(C)=O)/C=C/[C@@](C)(O)C(=O)[C@@H](C)C/C=C/[C@H]3[C@@H]1O [cytochalasin D, reference compound]
- phagocytic capacity / phagocytosis index [1]: significantly lowered
- melittin+CD11b+ double positive cells in total CD11b+ cell population (splenocytes [2]; 10 nM cytochalasin D pretreatment vs DMSO control): no difference

SMILES: CC[C@H](C)[C@H](NC(=O)CN)C(=O)NCC(=O)N[C@@H](C)C(=O)N[C@H](C(=O)N[C@@H](CC(C)C)C(=O)N[C@@H](CCCCN)C(=O)N[C@H](C(=O)N[C@@H](CC(C)C)C(=O)N[C@H](C(=O)N[C@H](C(=O)NCC(=O)N[C@@H](CC(C)C)C(=O)N1CCC[C@H]1C(=O)N[C@@H](C)C(=O)N[C@@H](CC(C)C)C(=O)N[C@H](C(=O)N[C@@H](CO)C(=O)N[C@@H](Cc1c[nH]c2ccccc12)C(=O)N[C@H](C(=O)N[C@@H](CCCCN)C(=O)N[C@@H](CCCNC(=N)N)C(=O)N[C@@H](CCCCN)C(=O)N[C@@H](CCCNC(=N)N)C(=O)N[C@@H](CCC(N)=O)C(=O)N[C@@H](CCC(N)=O)C(N)=O)[C@@H](C)CC)[C@@H](C)CC)[C@@H](C)O)[C@@H](C)O)C(C)C)C(C)C [melittin]
- weight of mice ([3]; day 0): 22.84±0.36
- weight of mice ([3]; day 18): 24.72±0.45
- weight loss ([3]; measured every 2 to 3 days, 0 to 18 days): no weight loss
- direct killing effect on cancer cells (lung cancer cells): no direct killing effect
- percentage of cells at each cell cycle stage (lung cancer cells; 24 hours): no percentage change
- integrated density of VEGF (image J) (tumor tissue; 0.5 mg/kg and 1 mg/kg vs PBS control group): significant difference
- level of CD31 by immunofluorescence staining (tumor tissue; compared to a PBS group): decrease
- level of VEGF by immunofluorescence staining (tumor tissue; compared to a PBS group): decrease
- protein level of TNF-α ([4]; LPS stimulation): did not affect
- protein expression level of IL-10 ([4]; M2-type BMDM (IL-4)): not changed
- protein expression level of TGF-β ([4]; M2-type BMDM (IL-4)): not changed
- other immune cells from total splenocytes (splenocytes [5]; control vs melittin-treated groups): no percentage change
- CD45+F480+ macrophages in splenocytes (splenocytes [5]; [13]): 5.10±0.42
- number of regulatory T cells in splenocytes (splenocytes [5]; [13]): decreased slightly
- level of M1 or M2 type macrophages in splenocytes (splenocytes [5]; spleen): not changed
- expression level of CD206 protein [6]: reduced
- expression level of VEGF protein [6]: reduced
- intracellular ROS levels [7]: no difference
- melittin binding in CD11b+ cells (splenocytes [2]; 0.5 μg/ml rhodamine-bound melittin, 1 hour): approximately 16%
- percentage of melittin+CD86+ population in F4/80+ cells (splenocytes [2]; M1 type): 3.27±0.39%
- percentage of melittin and CD206 double positive population in F4/80+ cells (splenocytes [2]; M2 type): 9.15±1.05%
- melittin binding to DC (CD11c) (splenocytes [2]; rhodamine-bound melittin): 24.44±0.56
- melittin binding to macrophages (F4/80) in annexinli-CD11b+ melittin+ cells (splenocytes [2]; rhodamine-bound melittin): 67.70±2.96
- melittin binding to neutrophils (Gr-1) (splenocytes [2]; rhodamine-bound melittin): 36.36±0.95
- cancer growth reduced compared to the control group ([8]; 0.5 mg/kg melittin peptide intraperitoneal, after 13 days of administration): 40%
- cancer growth suppressed compared to the control group ([8]; 0.5 mg/kg melittin peptide intraperitoneal, day 15): about 45%
- survival period vs control group (PBS-treated), Mantel-Cox analysis ([8]; tumor-bearing mice): significantly longer
- gene level of TNF-α ([9]; LPS stimulation): did not affect
- gene expression level of IL-10 ([9]; M2-type BMDM (IL-4)): not changed
- gene expression level of TGF-β ([9]; M2-type BMDM (IL-4)): not changed
- mRNA level for Mrc1/Cd206 compared to the control group ([9]; M2-type BMDM (IL-4)): significantly reduced
- mRNA level for Vegf compared to the control group ([9]; M2-type BMDM (IL-4)): significantly reduced
- percentage of CD11b+F4/80+ macrophages in CD45+ tumor-infiltrating leukocytes [10, 13]: 38.70±0.79%
- number of F4/80+CD86+ in CD45+ cells ([10]; tumor, M1-type): not increased
- percentage of F4/80+CD206+ in CD45+ cells ([10]; tumor, M2-type): 9.53±0.63%
- hematological factors (WBC, RBC, Hgb, HCT, MCV and MCH) ([11]; 0.5 mg/kg or 1 mg/kg melittin): did not result in significant changes
- acute cytotoxic damage ([11]; judged from N/L ratio): does not cause acute cytotoxic damage
- mRNA level of Vegf [12]: no large difference
- mRNA level of flt1/VFGFR [12]: no large difference
